From ChEMBL document CHEMBL1145423, “Synthesis and pharmacological evaluation of phenylethynyl[1,2,4]methyltriazines as analogues of 3-methyl-6-(phenylethynyl)pyridine” (J Med Chem, 2007)
pIC50: −log10 of the molar value. Activity calls are given as the source filed them. No cut-off for these calls is given here.

Assays:
[1] = target: Metabotropic glutamate receptor 5 (Homo sapiens, UniProt P41594); test: Antagonist activity at human mGluR5 receptor expressed in CHOK1 cells assessed as inhibition of glutamate-mediated internal calcium mobilization; type: functional, cell-based, CHO-K1; conditions: for pIC50: read-out: IC50; for IC50: cho-k1
[2] = target: Metabotropic glutamate receptor 1 (Homo sapiens) (UniProt Q13255); test: Antagonist activity at human mGluR1 receptor expressed in CHOK1 cells assessed as inhibition of glutamate-mediated internal calcium mobilization; type: functional, cell-based; conditions: CHO-K1
Sequence of Metabotropic glutamate receptor 1 (Homo sapiens) (Q13255 19-1194 limits assumed): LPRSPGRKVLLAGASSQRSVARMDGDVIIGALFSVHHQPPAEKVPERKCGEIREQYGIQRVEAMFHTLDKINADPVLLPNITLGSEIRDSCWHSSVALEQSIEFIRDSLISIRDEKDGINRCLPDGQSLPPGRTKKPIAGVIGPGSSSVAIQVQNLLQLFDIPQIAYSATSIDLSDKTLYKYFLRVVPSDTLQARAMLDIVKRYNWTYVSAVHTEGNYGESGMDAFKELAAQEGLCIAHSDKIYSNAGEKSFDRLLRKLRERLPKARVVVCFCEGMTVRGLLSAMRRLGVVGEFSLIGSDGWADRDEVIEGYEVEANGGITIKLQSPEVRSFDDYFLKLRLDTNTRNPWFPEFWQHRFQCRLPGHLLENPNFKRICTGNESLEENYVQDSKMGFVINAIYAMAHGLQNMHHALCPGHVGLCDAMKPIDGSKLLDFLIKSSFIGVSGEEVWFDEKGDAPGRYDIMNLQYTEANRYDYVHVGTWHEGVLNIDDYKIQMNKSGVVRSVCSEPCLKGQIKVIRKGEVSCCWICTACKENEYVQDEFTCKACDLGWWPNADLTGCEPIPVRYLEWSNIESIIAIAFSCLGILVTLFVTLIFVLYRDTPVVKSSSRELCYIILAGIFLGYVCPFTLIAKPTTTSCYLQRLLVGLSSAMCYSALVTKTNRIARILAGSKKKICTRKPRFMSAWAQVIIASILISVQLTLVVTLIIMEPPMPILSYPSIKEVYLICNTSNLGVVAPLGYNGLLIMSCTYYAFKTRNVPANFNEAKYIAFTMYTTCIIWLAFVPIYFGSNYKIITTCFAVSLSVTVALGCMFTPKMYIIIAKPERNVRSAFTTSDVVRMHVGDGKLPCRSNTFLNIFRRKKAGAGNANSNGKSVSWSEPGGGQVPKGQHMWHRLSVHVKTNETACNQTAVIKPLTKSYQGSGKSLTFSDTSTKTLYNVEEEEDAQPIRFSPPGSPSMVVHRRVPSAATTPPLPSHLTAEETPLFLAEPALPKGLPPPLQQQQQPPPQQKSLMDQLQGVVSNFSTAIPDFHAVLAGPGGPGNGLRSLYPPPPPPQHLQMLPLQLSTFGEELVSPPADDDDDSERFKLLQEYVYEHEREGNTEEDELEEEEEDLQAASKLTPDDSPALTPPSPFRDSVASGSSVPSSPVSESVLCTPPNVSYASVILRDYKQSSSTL

Sequence of Metabotropic glutamate receptor 5 (P41594 whole entry): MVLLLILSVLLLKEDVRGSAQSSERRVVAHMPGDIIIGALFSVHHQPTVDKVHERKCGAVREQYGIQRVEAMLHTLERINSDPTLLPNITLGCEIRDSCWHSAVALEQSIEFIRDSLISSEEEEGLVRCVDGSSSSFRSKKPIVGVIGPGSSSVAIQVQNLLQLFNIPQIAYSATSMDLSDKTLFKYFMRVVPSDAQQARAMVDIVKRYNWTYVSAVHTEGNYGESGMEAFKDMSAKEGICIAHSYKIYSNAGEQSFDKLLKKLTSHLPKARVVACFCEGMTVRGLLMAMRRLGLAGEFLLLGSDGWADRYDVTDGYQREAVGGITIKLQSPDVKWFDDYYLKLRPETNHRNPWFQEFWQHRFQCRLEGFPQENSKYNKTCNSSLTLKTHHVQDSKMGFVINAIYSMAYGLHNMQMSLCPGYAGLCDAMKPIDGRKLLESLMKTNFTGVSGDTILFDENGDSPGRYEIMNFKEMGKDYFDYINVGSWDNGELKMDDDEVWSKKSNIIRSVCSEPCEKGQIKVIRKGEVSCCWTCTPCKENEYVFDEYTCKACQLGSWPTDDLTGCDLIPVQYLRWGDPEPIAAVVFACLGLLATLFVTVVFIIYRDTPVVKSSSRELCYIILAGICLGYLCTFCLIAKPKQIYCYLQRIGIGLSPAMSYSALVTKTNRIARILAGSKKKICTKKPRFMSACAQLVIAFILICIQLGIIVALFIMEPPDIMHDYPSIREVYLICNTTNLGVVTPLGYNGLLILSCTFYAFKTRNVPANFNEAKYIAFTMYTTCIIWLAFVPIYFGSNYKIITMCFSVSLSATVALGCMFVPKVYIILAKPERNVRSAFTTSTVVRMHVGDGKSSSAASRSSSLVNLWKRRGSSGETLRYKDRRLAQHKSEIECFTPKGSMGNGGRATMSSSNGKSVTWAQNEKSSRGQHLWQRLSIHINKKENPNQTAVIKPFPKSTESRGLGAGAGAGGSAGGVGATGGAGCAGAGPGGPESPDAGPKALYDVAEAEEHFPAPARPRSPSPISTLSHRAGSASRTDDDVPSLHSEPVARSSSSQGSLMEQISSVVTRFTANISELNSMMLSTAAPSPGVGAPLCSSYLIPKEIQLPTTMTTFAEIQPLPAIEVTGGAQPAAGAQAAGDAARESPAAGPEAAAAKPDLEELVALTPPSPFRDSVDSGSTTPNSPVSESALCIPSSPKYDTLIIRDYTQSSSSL

With `Cc1cnnc(C#Cc2ccc(F)c(C)c2)n1` the pIC50 [1] was 6.88 and the Activity [2] was “inactive”.
With `Cc1cnnc(C#Cc2ccc3ccccc3c2)n1` the IC50 [1] was “Not Active”.
With `COc1ccccc1C#Cc1nncc(C)n1` the IC50 [1] was “Not Active”.
For `Cc1cccc(C#Cc2nncc(C)n2)c1`, the pIC50 [1] was 8.64 and the Activity [2] was “inactive”.
`Cc1cnnc(C#Cc2ccc(Oc3ccccc3)cc2)n1` was tested, and the pIC50 [1] was 7.10 and the Activity [2] was “inactive”.
In the case of `Cc1cnnc(C#Cc2ccc(C(F)(F)F)cc2)n1`, the IC50 [1] was “Not Active”.
`Cc1nncc(C#Cc2ccccc2)n1` was tested, and the IC50 [1] was “Not Active”.
In the case of `Cc1cnnc(C#Cc2ccc3c(c2)OCO3)n1`, the IC50 [1] was “Not Active”.
For `Cc1cnnc(C#Cc2cccc(C(F)(F)F)c2)n1`, the pIC50 [1] was 7.07 and the Activity [2] was “inactive”.
For `COc1ccc(C#Cc2nncc(C)n2)c(C)c1`, the IC50 [1] was “Not Active”.
For `Cc1cnnc(C#Cc2cccc3ccccc23)n1`, the pIC50 [1] was 5.05 and the Activity [2] was “inactive”.
For `Cc1cnnc(C#Cc2ccc(-c3ccccc3)cc2)n1`, the pIC50 [1] was 6.29 and the Activity [2] was “inactive”.
`Cc1cnnc(C#Cc2cccc(C#N)c2)n1` was tested, and the pIC50 [1] was 7.28 and the Activity [2] was “inactive”.
With `Cc1ccc(C)c(C#Cc2nncc(C)n2)c1` the pIC50 [1] was 5.72 and the Activity [2] was “inactive”.
`Cc1cnnc(C#Cc2cccc(F)c2)n1` was tested, and the pIC50 [1] was 7.02 and the Activity [2] was “inactive”.
With `Cc1cnnc(C#Cc2ccc(F)cc2F)n1` the IC50 [1] was “Not Active”.
For `COc1cccc(C#Cc2nncc(C)n2)c1`, the pIC50 [1] was 6.51 and the Activity [2] was “inactive”.
For `Cc1cnnc(C#Cc2cc(C(F)(F)F)cc(C(F)(F)F)c2)n1`, the IC50 [1] was “Not Active”.
For `Cc1cnnc(C#Cc2cccc(Cl)c2)n1`, the pIC50 [1] was 8.38 and the Activity [2] was “inactive”.
`Cc1cnc(C#Cc2ccccc2)nn1` was tested, and the IC50 [1] was “Not Active”.
`Cc1cnnc(C#Cc2ccccc2C)n1` was tested, and the IC50 [1] was “Not Active”.
`Cc1cnnc(C#Cc2cccc(Br)c2)n1` was tested, and the pIC50 [1] was 8.22 and the Activity [2] was “inactive”.
In the case of `Cc1cnnc(C#Cc2ccccc2)n1`, the pIC50 [1] was 6.85 and the Activity [2] was “inactive”.
